According to patent publication US8633199B2, “Medicine consisting of concomitant use or combination of DPP-IV inhibitor and other diabetic medicine” (Sanwa Kagaku Kenkyusho Co., Ltd., priority 2008, dated 2014):

Tests used:
Type in all cases: in vivo, rat
ZDF rats = assay: Oral corn starch loading test, plasma active GLP-1, glucose and insulin; details: oral compound (I) 3 mg/kg, Metformin 300 mg/kg, 15 min before corn starch loading, AUC 0-180 min; for increase of the concentration of the active GLP-1 in the plasma (AUC of change): FIG. 5; for plasma glucose elevation (AUC): FIG. 6
Description: An operation to insert a polyurethane catheter was performed on the right jugular vein of a ZDF rat (13 weeks old, male, Charles River Laboratories Japan, Inc.), and experiments were performed in the following four groups. (1) Control group: purified water was administered at a ratio of 5 ml/kg (2) Compound (I) group: the compound (I) dissolved in purified water was administered at a dose of 3 mg/kg (5 ml/kg) […] Metformin dissolved in purified water was administered at a dose of 300 mg/kg (5 ml/kg) (4) Concomitant use group: the compound (I) and Metformin dissolved in purified water were administered at respective doses of 3 mg/kg (5 ml/kg) and 300 mg/kg (5 ml/kg) […] Blood was collected from the catheter immediately before administration and after administration of corn starch, and centrifuged at 4° C., 3000 rpm for 10 minutes to obtain plasma. The concentration of the active GLP-1 in the obtained blood plasma was measured by ELISA (GLUCAGON-LIKE PEPTIDE-1 (ACTIVE) ELISA KIT, LINCO Research, Inc., US), the plasma glucose and insulin concentrations of the obtained plasma was measured by Glucose C2 (Wako Pure Chemical Industries, Ltd., Japan) and ELISA (Rat Insulin ELISA Kit, Shibayagi, Co., Ltd., Japan), respectively. Based on the measured concentration of the active GLP-1 in the plasma, the amount of change relative to the concentration immediately before starch administration was obtained. Based on the amount of change relative to the plasma active GLP-1, glucose and insulin concentrations, AUC from immediately before the administration of starch to 180 minutes after the administration was calculated. The result of the plasma active GLP-1 concentration is shown in FIG. 5, the result of the plasma glucose concentration is shown in FIG. 6 and the result of the plasma insulin concentration is shown in FIG. 7.

Wistar rats = assay: Oral corn starch loading test, plasma GIP (ELISA); details: oral compound (I) 3 mg/kg, Metformin 300 mg/kg, 30 min before corn starch loading, AUC 0-180 min, FIG. 8
Description: Effects of compound (I) alone, Metformin alone and concomitant use of compound (I) and Metformin on concentration of GIP in plasma during oral corn starch loading test in Slc: Wistar/ST rats (hereinafter abbreviated as Wistar rats) An operation to insert a polyurethane catheter was performed on the right jugular vein of a Wistar rat (9 weeks old, male, Japan SLC, Inc.), and experiments were performed in the following four groups. (1) Control group: purified water was administered at a ratio of 5 ml/kg (2) Compound (I) group: the compound (I) dissolved in purified water was administered at a dose of 3 mg/kg (5 ml/kg) […] Metformin dissolved in purified water was administered at a dose of 300 mg/kg (5 ml/kg) (4) Concomitant use group: the compound (I) and Metformin dissolved in purified water were administered at respective doses of 3 mg/kg (5 ml/kg) and 300 mg/kg (5 ml/kg) […] Blood was collected from the catheter immediately before administration and after administration of corn starch, and centrifuged at 4° C., 3000 rpm for 10 minutes to obtain plasma. The concentration of the GIP in the obtained plasma was measured by ELISA (RAT/MOUSE GIP (TOTAL) ELISA KIT, LINCO Research, Inc., US). Based on the measured GIP concentration, AUC from immediately before the administration of starch to 180 minutes after the administration was calculated.

Zucker fatty rats [1] = assay: Oral sucrose loading test, plasma active GLP-1 (ELISA); details: oral 3 mg/kg each drug 15 min before sucrose loading, AUC 0-120 min, FIG. 1
Description: Effects of compound (I) alone, Miglitol alone and concomitant use of compound (I) and Miglitol on plasma concentration of active GLP-1 during oral sucrose loading test in Slc: Zucker-fa/fa rats (hereinafter abbreviated as Zucker fatty rats)
An operation to insert a polyurethane catheter was performed on the right jugular vein of a Zucker fatty rat (9 weeks old, male, Japan SLC, Inc.) which is an obesity-insulin resistant model, and experiments were performed in the following four groups.
(§1) (1) Control group: purified water was administered at a ratio of 5 ml/kg
(§2) (2) Compound (I) group: the compound (I) dissolved in purified water was administered at a dose of 3 mg/kg (5 ml/kg)
(§3) (3) Miglitol group: Miglitol dissolved in purified water was administered at a dose of 3 mg/kg (5 ml/kg)
(§4) (4) Concomitant use group: the compound (I) and Miglitol dissolved in purified water were administered at respective dose of 3 mg/kg (5 ml/kg)
Purified water, the compound (I) and Miglitol were orally administered respectively to the Zucker fatty rats fasted overnight in each group as described in (1) to (4), and after 15 minutes, a 30% aqueous sucrose solution was administered at a ratio of 10 ml/kg. […] The concentration of an active GLP-1 in the obtained plasma was measured by an enzyme immunoassay (hereinafter abbreviated as ELISA) (GLUCAGON-LIKE PEPTIDE-1 (ACTIVE) ELISA KIT, LINCO Research, Inc., US). […]

Zucker fatty rats [2] = assay: Liquid diet loading test, plasma GIP, glucose and insulin; details: oral 3 mg/kg each drug 15 min before liquid diet loading; for increase in the plasma glucose concentration (AUC): AUC 0-60 min, FIG. 3; for increase in the GIP concentration in plasma (AUC, total GIP): AUC 0-120 min, FIG. 2
Description: Effects of compound (I) alone, Miglitol alone and concomitant use of compound (I) and Miglitol on GIP, glucose and insulin concentrations in plasma during liquid diet loading test in Crlj: ZUC-Lepr^fa Genotype: fa/fa rats (hereinafter abbreviated as Zucker fatty rats)
An operation to insert a polyurethane catheter was performed on the right jugular vein of a Zucker fatty rat (8 weeks old, male, Charles River Laboratories Japan, Inc.), which is an obesity and insulin-resistant model, and experiments were performed in the following four groups.
as §1, §2, §3, §4
Purified water, the compound (I) and Miglitol were orally administered respectively to the Zucker fatty rats fasted overnight in each group as described in (1) to (4), and after 15 minutes, a liquid diet (trade mark: ENSURE H, Meiji Dairies Corporation, Japan) was administered at a ratio of 10 ml/kg to carry out a diet loading test. Blood was collected from the catheter immediately before loading and after loading of the liquid diet, and centrifuged at 4° C., 3000 rpm for 10 minutes to obtain plasma. The GIP concentration in the obtained plasma was measured by an ELISA (RAT/MOUSE GIP (TOTAL) ELISA KIT, LINCO Research, Inc., US), and the plamsa glucose and insulin concentrations was measured by Glucose C2 (Wako Pure Chemical Industries, Ltd., Japan) and ELISA (Rat Insulin ELISA Kit, Shibayagi, Co., Ltd., Japan), respectively. Based on the measured GIP concentration in plasma, AUC from immediately before the loading of the liquid diet to 120 minutes after the loading was calculated. Based on the measured plasma glucose and insulin concentrations, AUC from immediately before the loading of the liquid diet to 60 minutes after the loading was calculated. […] The result of the GIP concentration in plasma is shown in FIG. 2, the result of the plasma glucose level is shown in FIG. 3 and the result of the plasma insulin concentration is shown in FIG. 4.

CN(C)C(=N)N=C(N)N [Metformin]
increase of the concentration of the active GLP-1 in the plasma (AUC of change) (ZDF rats): no significant difference
plasma glucose elevation (AUC) (ZDF rats): significantly suppressed
increase in the concentration of GIP in plasma (AUC, total GIP) (Wistar rats): significantly suppressed

OCCN1C[C@H](O)[C@@H](O)[C@H](O)[C@H]1CO [Miglitol]
increase of the concentration of the active GLP-1 in the plasma (AUC of change) (Zucker fatty rats [1]): no significant difference
increase in the plasma glucose concentration (AUC) (Zucker fatty rats [2]): no significant difference
increase in the GIP concentration in plasma (AUC, total GIP) (Zucker fatty rats [2]): showed a tendency of suppressing

Cc1cc2ncc(C(=O)NCC(C)(C)NCC(=O)N3CCC[C@H]3C#N)cn2n1 [compound (I), (S)—N-(2-(2-(2-cyanopyrrolidin-1-yl)-2-oxoethylamino)-2-methylpropyl)-2-methylpyrazolo[1,5-a]pyrimidine-6-carboxamide]
increase of the concentration of the active GLP-1 in the plasma (AUC of change) (Zucker fatty rats [1]): increased the concentration significantly
increase in the plasma glucose concentration (AUC) (Zucker fatty rats [2]): no significant difference
increase in the GIP concentration in plasma (AUC, total GIP) (Zucker fatty rats [2]): no change
increase of the concentration of the active GLP-1 in the plasma (AUC of change) (ZDF rats): increased the concentration significantly
plasma glucose elevation (AUC) (ZDF rats): no significant difference
increase in the concentration of GIP in plasma (AUC, total GIP) (Wistar rats): no change
